Patent US20230340011A1 (Asteroid Therapeutics, priority 2022, published 2023)
pEC50, pIC50: −log10 of the molar value.

Legend:
[1] = molecular target: LXRβ (Homo sapiens (Human), UniProt P55055); assay: In vitro assay LXRβ: PathHunter NHR CHO cells, LXRβ / Steroid Receptor Co-activator Peptide enzyme fragment complementation; type: cell-based; conditions: PathHunter NHR CHO cells, full-length human LXRβ and SRCP, chemiluminescent signal; read-out: LXRβ PPI
How it was run: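 Co-activator recruitment measured by chemiluminescence after signal generation. The CHO line carries full-length human LXRβ tagged with ProLink and an SRCP–enzyme acceptor fusion in the nucleus; cells sat overnight at 37° C before testing, in charcoal-dextran filtered serum medium with 1% final vehicle.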

[2] = molecular target: SREBP-2 (Homo sapiens (Human), UniProt Q12772); assay: In vitro assay SREBP-2: PathHunter U2OS SREBP-2 Nuclear Translocation Cell Line, U18666A-stimulated; type: cell-based; conditions: PathHunter U2OS SREBP-2 nuclear translocation cells, U18666A 10 μM, overnight (16 hours)

Chain of LXRβ (P55055 whole entry, the tested form may be a part): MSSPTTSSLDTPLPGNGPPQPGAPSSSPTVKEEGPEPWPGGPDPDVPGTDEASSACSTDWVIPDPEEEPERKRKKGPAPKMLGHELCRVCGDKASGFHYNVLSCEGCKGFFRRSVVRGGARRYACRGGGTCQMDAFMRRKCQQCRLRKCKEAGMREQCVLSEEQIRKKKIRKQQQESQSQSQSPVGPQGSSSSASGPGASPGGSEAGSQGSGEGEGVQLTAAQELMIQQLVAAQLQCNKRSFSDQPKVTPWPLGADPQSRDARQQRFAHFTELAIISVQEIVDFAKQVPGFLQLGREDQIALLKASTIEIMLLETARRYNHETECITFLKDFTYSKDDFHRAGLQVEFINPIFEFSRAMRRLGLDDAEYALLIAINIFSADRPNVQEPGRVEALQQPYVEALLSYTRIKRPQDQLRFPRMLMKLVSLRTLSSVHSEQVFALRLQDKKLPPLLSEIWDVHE

SMILES | pEC50 [1] | pIC50 [2]
C[C@H](CCc1ccns1)[C@H]1CC[C@H]2[C@@H]3CC=C4C[C@@H](O)CC[C@]4(C)[C@H]3CC[C@]12C [Example 183, (3S,8S,9S,10R,13R,14S,17R)-17-((R)-4-(isothiazol-5-yl)butan-2-yl)-10,13-dimethyl-2,3,4,7,8,9,10,11,12,13,14,15,16,17-tetradecahydro-1H-cyclopenta[a]phenanthren-3-ol] | < 5.00 | 6.00 to 6.60
C[C@H](CCc1ncccc1OCCO)[C@H]1CC[C@H]2[C@@H]3CC=C4C[C@@H](O)CC[C@]4(C)[C@H]3CC[C@]12C [Example 246] | 6.00 to 6.60 | > 6.60
C[C@H](CCC(=O)N1CCN(c2ncncc2C(F)(F)F)CC1)[C@H]1CC[C@H]2[C@@H]3CC=C4C[C@@H](O)CC[C@]4(C)[C@H]3CC[C@]12C [Example 619, (R)-4-((3S,8S,9S,10R,13R,14S,17R)-3-hydroxy-10,13-dimethyl-2,3,4,7,8,9,10,11,12,13,14,15,16,17-tetradecahydro-1H-cyclopenta[a]phenanthren-17-yl)-1-(4-(5-(trifluoromethyl)pyrimidin-4-yl)piperazin-1-yl)pentan-1-one] | < 5.00 | > 6.60
C[C@H](CCC(=O)N1CCN(C(=O)N2CCCC2)[C@@H](C)C1)[C@H]1CC[C@H]2[C@@H]3CC=C4C[C@@H](O)CC[C@]4(C)[C@H]3CC[C@]12C [Example 654, (4R)-4-[(1R,3aS,3bS,7S,9aR,9bS,11aR)-7-hydroxy-9a,11a-dimethyl-1H,2H,3H,3aH,3bH,4H,6H,7H,8H,9H,9aH,9bH,10H,11H,11aH-cyclopenta[a]phenanthren-1-yl]-1-[(3 S)-3-methyl-4-(pyrrolidine-1-carbonyl)piperazin-1-yl]pentan-1-one] | < 5.00 | > 6.60
C[C@H](CCC(=O)N1CCN(S(=O)(=O)N(C)C)CC1)[C@H]1CC[C@H]2[C@@H]3CC=C4C[C@@H](O)CC[C@]4(C)[C@H]3CC[C@]12C [Example 358, 4-((R)-4-((3S,8S,9S,10R,13R,14S,17R)-3-hydroxy-10,13-dimethyl-2,3,4,7,8,9,10,11,12,13,14,15,16,17-tetradecahydro-1H-cyclopenta[a]phenanthren-17-yl)pentanoyl)-N,N-dimethylpiperazine-1-sulfonamide] | < 5.00 | > 6.60
COC(=O)N1CCN(C(=O)CC[C@@H](C)[C@H]2CC[C@H]3[C@@H]4CC=C5C[C@@H](O)CC[C@]5(C)[C@H]4CC[C@]23C)[C@@H](C)C1 [Example 579, Methyl(S)-4-((R)-4-((3S,8S,9S,10R,13R,14S,17R)-3-hydroxy-10,13-dimethyl-2,3,4,7,8,9,10,11,12,13,14,15,16,17-tetradecahydro-1H-cyclopenta[a]phenanthren-17-yl)pentanoyl)-3-methylpiperazine-1-carboxylate] | < 5.00 | > 6.60
CCOc1cccnc1CC[C@@H](C)[C@H]1CC[C@H]2[C@@H]3CC=C4C[C@@H](O)CC[C@]4(C)[C@H]3CC[C@]12C [Example 247, (1R,3aS,3bS,7S,9aR,9bS,11aR)-1-[(2R)-4-(3-ethoxypyridin-2-yl)butan-2-yl]-9a,11a-dimethyl-1H,2H,3H,3aH,3bH,4H,6H,7H,8H,9H,9aH,9bH,10H,11H,11aH-cyclopenta[a]phenanthren-7-ol] | 6.00 to 6.60 | > 6.60
C[C@H](CCC(=O)N1CCC(C)(C(N)=O)CC1)[C@H]1CC[C@H]2[C@@H]3CC=C4C[C@@H](O)CC[C@]4(C)[C@H]3CC[C@]12C [Example 85, 1-((R)-4-((3S,8S,9S,10R,13R,14S,17R)-3-hydroxy-10,13-dimethyl-2,3,4,7,8,9,10,11,12,13,14,15,16,17-tetradecahydro-1H-cyclopenta[a]phenanthren-17-yl)pentanoyl)-4-methylpiperidine-4-carboxamide] | < 5.00 | > 6.60
Cc1nnc(N2CCN(C(=O)CC[C@@H](C)[C@H]3CC[C@H]4[C@@H]5CC=C6C[C@@H](O)CC[C@]6(C)[C@H]5CC[C@]34C)C[C@@H]2C)o1 [Example 634, (4R)-4-[(1R,3aS,3bS,7S,9aR,9bS,11aR)-7-hydroxy-9a,11a-dimethyl-1H,2H,3H,3aH,3bH,4H,6H,7H,8H,9H,9aH,9bH,10H,11H,11aH-cyclopenta[a]phenanthren-1-yl]-1-[(3S)-3-methyl-4-(5-methyl-1,3,4-oxadiazol-2-yl)piperazin-1-yl]pentan-1-one] | < 5.00 | > 6.60
C[C@H](CCC(=O)N1CCC(C(F)(F)F)CC1)[C@H]1CC[C@H]2[C@@H]3CC=C4C[C@@H](O)CC[C@]4(C)[C@H]3CC[C@]12C [Example 82, (R)-4-((3S,8S,9S,10R,13R,14S,17R)-3-hydroxy-10,13-dimethyl-2,3,4,7,8,9,10,11,12,13,14,15,16,17-tetradecahydro-1H-cyclopenta[a]phenanthren-17-yl)-1-(4-(trifluoromethyl)piperidin-1-yl)pentan-1-one] | < 5.00 | > 6.60
C[C@H](CCc1cnsc1)[C@H]1CC[C@H]2[C@@H]3CC=C4C[C@@H](O)CC[C@]4(C)[C@H]3CC[C@]12C [Example 176, (3S,8S,9S,10R,13R,14S,17R)-17-((R)-4-(isothiazol-4-yl)butan-2-yl)-10,13-dimethyl-2,3,4,7,8,9,10,11,12,13,14,15,16,17-tetradecahydro-1H-cyclopenta[a]phenanthren-3-ol] | < 5.00 | 6.00 to 6.60
CCC(=O)N1CCN(C(=O)CC[C@@H](C)[C@H]2CC[C@H]3[C@@H]4CC=C5C[C@@H](O)CC[C@]5(C)[C@H]4CC[C@]23C)[C@@H](C)C1 [Example 583, (4R)-4-[(1R,3aS,3bS,7S,9aR,9bS,11aR)-7-hydroxy-9a,11a-dimethyl-1H,2H,3H,3aH,3bH,4H,6H,7H,8H,9H,9aH,9bH,10H,11H,11aH-cyclopenta[a]phenanthren-1-yl]-1-[(2S)-2-methyl-4-propanoylpiperazin-1-yl]pentan-1-one] | < 5.00 | > 6.60
C[C@H](COc1cccc(CO)n1)[C@H]1CC[C@H]2[C@@H]3CC=C4C[C@@H](O)CC[C@]4(C)[C@H]3CC[C@]12C [Example 260, (3S,8S,9S,10R,13S,14S,17R)-17-((S)-1-((6-(hydroxymethyl)pyridin-2-yl)oxy)propan-2-yl)-10,13-dimethyl-2,3,4,7,8,9,10,11,12,13,14,15,16,17-tetradecahydro-1H-cyclopenta[a]phenanthren-3-ol] | < 5.00 | > 6.60
C[C@H](CCC(=O)N1CCN(c2cncn2C)CC1)[C@H]1CC[C@H]2[C@@H]3CC=C4C[C@@H](O)CC[C@]4(C)[C@H]3CC[C@]12C [Example 481, (4R)-4-[(1R,3aS,3bS,7S,9aR,9bS,11aR)-7-hydroxy-9a,11a-dimethyl-1H,2H,3H,3aH,3bH,4H,6H,7H,8H,9H,9aH,9bH,10H,11H,11aH-cyclopenta[a]phenanthren-1-yl]-1-[4-(1-methyl-1H-imidazol-5-yl)piperazin-1-yl]pentan-1-one] | < 5.00 | > 6.60
C[C@H](CCc1ccc(F)cn1)[C@H]1CC[C@H]2[C@@H]3CC=C4C[C@@H](O)CC[C@]4(C)[C@H]3CC[C@]12C [Example 162, (1R,3aS,3bS,7S,9aR,9bS,11aR)-1-[(2R)-4-(5-fluoropyridin-2-yl)butan-2-yl]-9a,11a-dimethyl-1H,2H,3H,3aH,3bH,4H,6H,7H,8H,9H,9aH,9bH,10H,11H,11aH-cyclopenta[a]phenanthren-7-ol] | 5.00 to 6.00 | > 6.60
C[C@H](CCC(=O)N1CCN(c2ccncc2)C[C@@H]1C)[C@H]1CC[C@H]2[C@@H]3CC=C4C[C@@H](O)CC[C@]4(C)[C@H]3CC[C@]12C [Example 580, (R)-4-((3S,8S,9S,10R,13R,14S,17R)-3-hydroxy-10,13-dimethyl-2,3,4,7,8,9,10,11,12,13,14,15,16,17-tetradecahydro-1H-cyclopenta[a]phenanthren-17-yl)-1-((S)-2-methyl-4-(pyridin-4-yl)piperazin-1-yl)pentan-1-one] | < 5.00 | > 6.60
CCc1cccc(CC[C@@H](C)[C@H]2CC[C@H]3[C@@H]4CC=C5C[C@@H](O)CC[C@]5(C)[C@H]4CC[C@]23C)n1 [Example 167, (3S,8S,9S,10R,13R,14S,17R)-17-((R)-4-(6-ethylpyridin-2-yl)butan-2-yl)-10,13-dimethyl-2,3,4,7,8,9,10,11,12,13,14,15,16,17-tetradecahydro-1H-cyclopenta[a]phenanthren-3-ol] | < 5.00 | 6.00 to 6.60
COc1ccnc(N2CCN(C(=O)CC[C@@H](C)[C@H]3CC[C@H]4[C@@H]5CC=C6C[C@@H](O)CC[C@]6(C)[C@H]5CC[C@]34C)CC2)c1 [Example 657, (R)-4-((3S,8S,9S,10R,13R,14S,17R)-3-hydroxy-10,13-dimethyl-2,3,4,7,8,9,10,11,12,13,14,15,16,17-tetradecahydro-1H-cyclopenta[a]phenanthren-17-yl)-1-(4-(4-methoxypyridin-2-yl)piperazin-1-yl)pentan-1-one] | < 5.00 | > 6.60
C[C@H](CCC(=O)N1CCN(c2nnnn2C)CC1)[C@H]1CC[C@H]2[C@@H]3CC=C4C[C@@H](O)CC[C@]4(C)[C@H]3CC[C@]12C [Example 606, (R)-4-((3S,8S,9S,10R,13R,14S,17R)-3-hydroxy-10,13-dimethyl-2,3,4,7,8,9,10,11,12,13,14,15,16,17-tetradecahydro-1H-cyclopenta[a]phenanthren-17-yl)-1-(4-(1-methyl-1H-tetrazol-5-yl)piperazin-1-yl)pentan-1-one] | < 5.00 | > 6.60
